Experimental data taken from PubChem BioAssay AID330 (DTP/NCI, 2004).
“And” between values parts separate entries of the source, which are not always exact repeats. Identical values can stand only once. Toxic doses and inconclusive results are not listed.

System: P388 leukemia ip, CD2F1 mice, survival T/C
Assay: NCI In Vivo Anticancer Drug Screen. Data for tumor model P388 Leukemia (intraperitoneal) in CD2F1 (CDF1) mice
Settings: endpoint: median survival time, higher = longer survival
Summary of the method: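 Mice carrying the transplanted tumor received test compound or vehicle. Survival was recorded in each group, and the value is the treated-group measurement divided by that of the vehicle-treated control group.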

[1] = dose: 50.0 mg/kg/injection, schedule: Q01DX009 (ip), vehicle: saline
[2] = dose: 100.0 mg/kg/injection, schedule: Q01DX009 (ip), vehicle: saline
[3] = dose: 50.0 mg/kg/injection, schedule: Q01DX009 (ip), vehicle: saline with Tween-80
[4] = dose: 100.0 mg/kg/injection, schedule: Q01DX009 (ip), vehicle: saline with Tween-80
[5] = dose: 200.0 mg/kg/injection, schedule: Q01DX009 (ip), vehicle: saline with Tween-80
[6] = dose: 6.25 mg/kg/injection, schedule: Q01DX009 (ip), vehicle: Klucel (hydroxypropylcellulose) (HPC)
[7] = dose: 12.5 mg/kg/injection, schedule: Q01DX009 (ip), vehicle: Klucel (hydroxypropylcellulose) (HPC)
[8] = dose: 15.0 mg/kg/injection, schedule: Q01DX005 (ip), vehicle: saline with Tween-80
[9] = dose: 30.0 mg/kg/injection, schedule: Q01DX005 (ip), vehicle: saline with Tween-80
[10] = dose: 60.0 mg/kg/injection, schedule: Q01DX005 (ip), vehicle: saline with Tween-80
[11] = dose: 120.0 mg/kg/injection, schedule: Q01DX005 (ip), vehicle: saline with Tween-80
[12] = dose: 240.0 mg/kg/injection, schedule: Q01DX005 (ip), vehicle: saline with Tween-80
[13] = dose: 100.0 mg/kg/injection, schedule: Q04DX003 (ip), vehicle: saline with Tween-80
[14] = dose: 200.0 mg/kg/injection, schedule: Q04DX003 (ip), vehicle: saline with Tween-80
[15] = dose: 400.0 mg/kg/injection, schedule: Q04DX003 (ip), vehicle: saline with Tween-80
[16] = dose: 50.0 mg/kg/injection, schedule: Q01DX005 (ip), vehicle: saline with Tween-80
[17] = dose: 100.0 mg/kg/injection, schedule: Q01DX005 (ip), vehicle: saline with Tween-80

CCCCCCCCCCCCCCN1CCSCC1
T/C [1]: 101 % of control
T/C [2]: 99 % of control

[O-]/[N+](=C\c1ccccc1)CC1(O)CCCCC1
T/C [3]: 90 % of control
T/C [4]: 88 % of control
T/C [5]: 99 % of control

CCC(c1ccc(OC)cc1)C(NCC(=O)NNC(=O)CNC(c1ccc(OC)cc1)C(CC)c1ccc(OC)cc1)c1ccc(OC)cc1 (stereo not drawn)
T/C (dose: 200.0 mg/kg/injection, schedule: Q04DX002 (ip), vehicle: saline with Tween-80): 86 % of control
T/C (dose: 400.0 mg/kg/injection, schedule: Q04DX002 (ip), vehicle: saline with Tween-80): 92 % of control

Cc1cc(C)[nH]c(=O)c1
T/C [4]: 100 % of control
T/C [5]: 100 % of control
T/C (dose: 400.0 mg/kg/injection, schedule: Q01DX009 (ip), vehicle: saline with Tween-80): 109 % of control

CCOC(=O)CNCc1ccc(Cl)c(Cl)c1
T/C [6]: 100 % of control
T/C [7]: 103 % of control and 97 % of control
T/C (dose: 25.0 mg/kg/injection, schedule: Q01DX009 (ip), vehicle: Klucel (hydroxypropylcellulose) (HPC)): 100 % of control
T/C (dose: 50.0 mg/kg/injection, schedule: Q01DX009 (ip), vehicle: Klucel (hydroxypropylcellulose) (HPC)): 108 % of control and 94 % of control
T/C (dose: 100.0 mg/kg/injection, schedule: Q01DX009 (ip), vehicle: Klucel (hydroxypropylcellulose) (HPC)): 104 % of control

CC(=O)OCC1OC(Sc2ccc([N+](=O)[O-])cc2)C(OC(C)=O)C(OC(C)=O)C1OC(C)=O (stereo not drawn)
T/C [8]: 100 % of control
T/C [9]: 98 % of control
T/C [10]: 91 % of control

CC(=O)Oc1ccc(/C=N\N(C)C)cc1
T/C [1]: 102 % of control
T/C [2]: 95 % of control

CC12CCC(OC3OC(CO)C(O)C(O)C3O)C=C1CCC1C2CCC2(C)C(c3ccc(=O)oc3)CCC12 (stereo not drawn)
T/C (dose: 6.25 mg/kg/injection, schedule: Q01DX005 (ip), vehicle: Klucel (hydroxypropylcellulose) (HPC)): 95 % of control
T/C (dose: 12.5 mg/kg/injection, schedule: Q01DX005 (ip), vehicle: Klucel (hydroxypropylcellulose) (HPC)): 98 % of control
T/C (dose: 25.0 mg/kg/injection, schedule: Q01DX005 (ip), vehicle: Klucel (hydroxypropylcellulose) (HPC)): 101 % of control and 98 % of control

CC(C)(O)/C=C/C(=O)C(C)(O)C1C(O)CC2(C)C3CC=C4C(CC(=O)C(O)C4(C)C)C3(C)C(=O)CC12C (stereo not drawn)
T/C (dose: 0.5 mg/kg/injection, schedule: Q01DX009 (ip), vehicle: saline + alcohol): 119 % of control
T/C (dose: 1.0 mg/kg/injection, schedule: Q01DX009 (ip), vehicle: saline + alcohol): 119 % of control
T/C (dose: 2.0 mg/kg/injection, schedule: Q01DX009 (ip), vehicle: saline + alcohol): 121 % of control and 120 % of control

Cc1cc(=O)[nH]c2cc3oc4ccccc4c3cc12
T/C [10]: 98 % of control
T/C [11]: 102 % of control
T/C [12]: 103 % of control

O=c1[nH]nc(-c2ccc(Br)cc2)s1
T/C [13]: 98 % of control
T/C [14]: 100 % of control
T/C [15]: 99 % of control

CCOC(=O)C(NC(=O)c1ccccc1)(C(=O)OCC)c1ccccn1
T/C (dose: 60.0 mg/kg/injection, schedule: Q01DX005 (ip), vehicle: saline): 99 % of control
T/C (dose: 120.0 mg/kg/injection, schedule: Q01DX005 (ip), vehicle: saline): 99 % of control
T/C (dose: 240.0 mg/kg/injection, schedule: Q01DX005 (ip), vehicle: saline): 105 % of control

COc1cc2cc(-c3ccc4c(c3)OCO4)[n+](C)cc2cc1OC
T/C (dose: 6.25 mg/kg/injection, schedule: Q01DX001 (ip), vehicle: Klucel (hydroxypropylcellulose) (HPC)): 100 % of control
T/C (dose: 12.5 mg/kg/injection, schedule: Q01DX001 (ip), vehicle: Klucel (hydroxypropylcellulose) (HPC)): 107 % of control
T/C (dose: 25.0 mg/kg/injection, schedule: Q01DX001 (ip), vehicle: Klucel (hydroxypropylcellulose) (HPC)): 110 % of control
T/C (dose: 50.0 mg/kg/injection, schedule: Q01DX001 (ip), vehicle: Klucel (hydroxypropylcellulose) (HPC)): 96 % of control

O/N=C(/c1ccccc1)n1nnc2ccccc21
T/C [10]: 118 % of control
T/C [11]: 106 % of control
T/C [12]: 105 % of control

COC1=CC(=O)c2ncccc2C1=O
T/C (dose: 1.56 mg/kg/injection, schedule: Q01DX009 (ip), vehicle: DMSO): 101 % of control
T/C (dose: 3.13 mg/kg/injection, schedule: Q01DX009 (ip), vehicle: DMSO): 100 % of control
T/C (dose: 6.25 mg/kg/injection, schedule: Q01DX009 (ip), vehicle: DMSO): 100 % of control
T/C (dose: 12.5 mg/kg/injection, schedule: Q01DX009 (ip), vehicle: DMSO): 111 % of control and 96 % of control
T/C (dose: 25.0 mg/kg/injection, schedule: Q01DX009 (ip), vehicle: DMSO): 101 % of control and 113 % of control

CN1C2=CC=CC=CC2=[N+](C)C1C(=C=[N-])C#N (stereo not drawn)
T/C [8]: 104 % of control
T/C [9]: 107 % of control
T/C [10]: 107 % of control and 115 % of control

Nc1ccc(C(=O)Nc2ccccc2N)cc1
T/C [13]: 100 % of control
T/C [14]: 99 % of control
T/C [15]: 108 % of control

C/C=C1\CN(C)CCC23C(=O)CC1C1COC(O)C(=O)N(c4ccccc42)C13 (stereo not drawn)
T/C (dose: 1.0 mg/kg/injection, schedule: Q01DX009 (ip), vehicle: Klucel (hydroxypropylcellulose) (HPC)): 103 % of control
T/C (dose: 2.0 mg/kg/injection, schedule: Q01DX009 (ip), vehicle: Klucel (hydroxypropylcellulose) (HPC)): 110 % of control
T/C (dose: 4.0 mg/kg/injection, schedule: Q01DX009 (ip), vehicle: Klucel (hydroxypropylcellulose) (HPC)): 118 % of control
T/C (dose: 5.0 mg/kg/injection, schedule: Q01DX009 (ip), vehicle: saline): 97 % of control
T/C (dose: 8.0 mg/kg/injection, schedule: Q01DX009 (ip), vehicle: Klucel (hydroxypropylcellulose) (HPC)): 101 % of control
T/C (dose: 10.0 mg/kg/injection, schedule: Q01DX009 (ip), vehicle: saline): 99 % of control
T/C (dose: 16.0 mg/kg/injection, schedule: Q01DX009 (ip), vehicle: Klucel (hydroxypropylcellulose) (HPC)): 110 % of control
T/C (dose: 20.0 mg/kg/injection, schedule: Q01DX009 (ip), vehicle: saline): 101 % of control

O=C1C=CC(=O)N1c1cccc2c1CCCC2
T/C (dose: 6.25 mg/kg/injection, schedule: Q01DX009 (ip), vehicle: saline with Tween-80): 105 % of control
T/C (dose: 12.5 mg/kg/injection, schedule: Q01DX009 (ip), vehicle: saline with Tween-80): 114 % of control

CC(/C=N\NC(N)=O)=N/N=C(N)N
T/C (dose: 100.0 mg/kg/injection, schedule: Q04DX003 (ip), vehicle: saline): 94 % of control
T/C (dose: 200.0 mg/kg/injection, schedule: Q04DX003 (ip), vehicle: saline): 94 % of control
T/C (dose: 400.0 mg/kg/injection, schedule: Q04DX003 (ip), vehicle: saline): 92 % of control

COc1ccc(Cc2cc3c(cc2OCC(=O)Nc2ncccn2)OCO3)cc1
T/C [16]: 108 % of control
T/C [17]: 88 % of control
T/C (dose: 200.0 mg/kg/injection, schedule: Q01DX005 (ip), vehicle: saline with Tween-80): 87 % of control

Cc1c(C(=O)CC2OC(=O)C(Cl)=C2Cl)c2ccccc2n1C(=O)Nc1ccc(Cl)cc1 (stereo not drawn)
T/C [10]: 93 % of control
T/C [11]: 99 % of control
T/C [12]: 94 % of control

CC(=O)Nc1ncn[nH]1
T/C [3]: 100 % of control
T/C [4]: 90 % of control
T/C [13]: 100 % of control
T/C [5]: 90 % of control
T/C [14]: 90 % of control

CCCCCCCCCCCC[N+]1(CC)CCOCC1
T/C (dose: 3.12 mg/kg/injection, schedule: Q01DX009 (ip), vehicle: saline): 106 % of control
T/C (dose: 6.25 mg/kg/injection, schedule: Q01DX009 (ip), vehicle: saline): 101 % of control
T/C (dose: 12.5 mg/kg/injection, schedule: Q01DX009 (ip), vehicle: saline): 101 % of control

Cc1ccc(NCCN(C)C)c2c(=O)c3cccc(O)c3sc12
T/C [3]: 100 % of control
T/C [4]: 95 % of control
T/C [5]: 97 % of control

C/C(=N\NC(=S)N1CCC(C)CC1)c1cccc2cccnc12
T/C [16]: 106 % of control
T/C [17]: 104 % of control

Cc1cc(N(CCOS(C)(=O)=O)CCOS(C)(=O)=O)ccc1C=O
T/C (dose: 3.12 mg/kg/injection, schedule: Q01DX009 (ip), vehicle: Klucel (hydroxypropylcellulose) (HPC)): 150 % of control and 176 % of control
T/C [6]: 174 % of control and 196 % of control
T/C [7]: 110 % of control and 213 % of control and 217 % of control
